Where two headings read alike, the source gives them in different places.
Assays:
[1] = test system: panel of 55 breast cancer cell lines; assay: Cell growth inhibition assay (Cell Titer Glo, 72 h, 9 doses; GI50, TGI, LC50); format: cell-based, human; conditions: Homo sapiens, read-out: GI50 (converted)
[2] = test system: luminal, basal, claudin-low and ERBB2AMP breast cancer cell lines; assay: Associations of clinically relevant subtypes and response (non-parametric ANOVA or t-test on GI50 ranks); format: cell-based, human; conditions: Table 6; most sensitive subtype, FDR p<0.20
Excerpt: A central premise of this study is that associations between responses and molecular subtypes observed in preclinical cell line analyses will be recapitulated in the clinic in instances where the predictive molecular features in the cell lines are mirrored in human tumors. We established response-subtype associations by using non-parametric ANOVAs to compare […] values across transcriptional and genomics subtypes.
Differences between GI50s of the groups were compared with a non-parametric ANOVA or t-test, as appropriate, on the ranks. We combined the p-values for the three sets of tests and used false discovery rate (FDR) to correct for multiple testing. For the three-sample test, we performed a post-hoc analysis on the compounds with a significant class effect by comparing each group to all others to determine which group was most sensitive. The p-values for the post-hoc test were FDR-corrected together. In all cases, FDR p<0.20 was deemed significant. […] Analyses were performed in R.

CC/C(=C(\c1ccccc1)c1ccc(OCCN(C)C)cc1)c1ccccc1 [Tamoxifen]
GI50 ([1]; 600MPE cell line, censored GI50 values): 47.9 µM | GI50 ([1]; AU565, AU565 cell line, censored GI50 values): 28.8 µM | GI50 ([1]; AU565, cell line AU565): 28.8 µM | GI50 ([1]; BT-474, BT474 cell line, censored GI50 values): 2.4 µM | GI50 ([1]; BT-474, cell line BT474): 2.4 µM | GI50 ([1]; BT-483, BT483 cell line, censored GI50 values): 24 µM | GI50 ([1]; BT-483, cell line BT483): 24 µM | GI50 ([1]; BT-549, cell line BT549): 166 µM | GI50 ([1]; CAMA-1, CAMA1 cell line, censored GI50 values): 34.7 µM | GI50 ([1]; CAMA-1, cell line CAMA1): 34.7 µM | GI50 ([1]; HCC38, HCC38 cell line, censored GI50 values): 52.5 µM | GI50 ([1]; HCC38, cell line HCC38): 52.5 µM | GI50 ([1]; HCC70, cell line HCC70): 166 µM | GI50 ([1]; HCC202, HCC202 cell line, censored GI50 values): 29.5 µM | GI50 ([1]; HCC202, cell line HCC202): 29.5 µM | GI50 ([1]; HCC1143, HCC1143 cell line, censored GI50 values): 16.2 µM | GI50 ([1]; HCC1143, cell line HCC1143): 16.2 µM | GI50 ([1]; HCC1395, HCC1395 cell line, censored GI50 values): 14.5 µM | GI50 ([1]; HCC1395, cell line HCC1395): 14.5 µM | GI50 ([1]; HCC1419, HCC1419 cell line, censored GI50 values): 33.1 µM | GI50 ([1]; HCC1419, cell line HCC1419): 33.1 µM | GI50 ([1]; HCC1428, HCC1428 cell line, censored GI50 values): 3.24 µM | GI50 ([1]; HCC1428, cell line HCC1428): 3.24 µM | GI50 ([1]; HCC1500, HCC1500 cell line, censored GI50 values): 105 µM | GI50 ([1]; HCC1500, cell line HCC1500): 105 µM | GI50 ([1]; HCC1806, HCC1806 cell line, censored GI50 values): 13.2 µM | GI50 ([1]; HCC1806, cell line HCC1806): 13.2 µM | GI50 ([1]; HCC1937, cell line HCC1937): 166 µM | GI50 ([1]; HCC1954, HCC1954 cell line, censored GI50 values): 97.7 µM | GI50 ([1]; HCC1954, cell line HCC1954): 97.7 µM | GI50 ([1]; HCC2185 cell line, censored GI50 values): 14.1 µM | GI50 ([1]; LY2 cell line, censored GI50 values): 56.2 µM | GI50 ([1]; MCF7, MCF7 cell line, censored GI50 values): 102 µM | GI50 ([1]; MCF7, cell line MCF7): 102 µM | GI50 ([1]; MDA-MB-134-VI, MDAMB134VI cell line, censored GI50 values): 83.2 µM | GI50 ([1]; MDA-MB-175-VII, MDAMB175VII cell line, censored GI50 values): 14.5 µM | GI50 ([1]; MDA-MB-415, MDAMB415 cell line, censored GI50 values): 33.9 µM | GI50 ([1]; MDA-MB-436, MDAMB436 cell line, censored GI50 values): 30.9 µM | GI50 ([1]; MDA-MB-453, MDAMB453 cell line, censored GI50 values): 36.3 µM | GI50 ([1]; SK-BR-3, SKBR3 cell line, censored GI50 values): 105 µM | GI50 ([1]; SUM52PE, SUM52PE cell line, censored GI50 values): 91.2 µM | GI50 ([1]; SUM149PT, SUM149PT cell line, censored GI50 values): 102 µM | GI50 ([1]; SUM185PE, SUM185PE cell line, censored GI50 values): 8.91 µM | GI50 ([1]; SUM1315MO2, SUM1315MO2 cell line, censored GI50 values): 100 µM | GI50 ([1]; UACC-893, UACC893 cell line, censored GI50 values): 3.09 µM | GI50 ([1]; ZR-75B, ZR75B cell line, censored GI50 values): 16.2 µM | GI50 ([1]; cell line 600MPE): 47.9 µM | GI50 ([1]; cell line HCC2185): 14.1 µM | GI50 ([1]; cell line HCC3153): 166 µM | GI50 ([1]; cell line LY2): 56.2 µM | Subtype specificity [2]: Luminal

— patent US10770169B2, “Method of providing a treatment to a subject based on a dynamic pathway map” (THE REGENTS OF THE UNIVERSITY OF CALIFORNIA, priority 2010, dated 2020)
